Measurements published in DBAASP.
In brackets after ≈: the same amount, converted by molar mass.

Columns and labels:
Assay in all cases: ≥ marks a high value that may be exact or a test limit, other limits are often not marked, values filed in µg/mL are converted to µM
[1] = system: Bacillus subtilis ATCC 6633
[2] = system: Klebsiella pneumoniae ATCC 27736
[3] = system: Pseudomonas aeruginosa ATCC BAA-427
[4] = system: Cronobacter muytjensii ATCC 51329
[5] = system: Cronobacter sakazakii ATCC BAA-894
[6] = system: Cronobacter sakazakii DPC 6440
[7] = system: Cronobacter sakazakii DSM 4485
[8] = system: Escherichia coli NCIMB 11843
[9] = system: Klebsiella pneumoniae NCIMB 13218
[10] = system: Pseudomonas fluorescens NCIMB 9046
[11] = system: Salmonella enterica subsp. enterica serovar Typhimurium LT2
[12] = system: Staphylococcus aureus NCTC 8325-4
[13] = system: Staphylococcus aureus Newman
[14] = system: Staphylococcus aureus RF122
[15] = system: Staphylococcus aureus RN4220
[16] = system: Staphylococcus aureus SA113
[17] = system: Escherichia coli DH5alpha
Staphylococcus xylosus = system: Staphylococcus xylosus
[18] = system: Pseudomonas aeruginosa ATCC 27853

SMILES | MIC [1] [µM] | MIC [2] [µM] | MIC [3] [µM] | MIC [4] [µM] | MIC [5] [µM] | MIC [6] [µM] | MIC [7] [µM] | MIC [8] [µM] | MIC [9] [µM] | MIC [10] [µM] | MIC [11] [µM] | MIC [12] [µM] | MIC [13] [µM] | MIC [14] [µM] | MIC [15] [µM] | MIC [16] [µM] | MIC [17] [µM] | MIC (Staphylococcus xylosus) [µM] | MIC [18] [µM]
CC[C@H](C)[C@H](NC(=O)CNC(=O)[C@H](CCCN=C(N)N)NC(=O)[C@H](C)NC(=O)[C@H](Cc1ccccc1)NC(=O)[C@H](Cc1cnc[nH]1)NC(=O)[C@H](Cc1cnc[nH]1)NC(=O)[C@H](Cc1ccccc1)NC(=O)[C@@H](N)Cc1ccccc1)C(=O)N[C@H](C(=O)N[C@@H](Cc1cnc[nH]1)C(=O)N[C@H](C(=O)NCC(=O)N[C@@H](CCCCN)C(=O)N[C@H](C(=O)N[C@H](C(=O)N[C@@H](Cc1cnc[nH]1)C(=O)N[C@@H](CCCN=C(N)N)C(=O)N[C@@H](CC(C)C)C(=O)N[C@H](C(=O)N[C@H](C(=O)NCC(N)=O)[C@@H](C)O)C(C)C)[C@@H](C)CC)[C@@H](C)O)C(C)C)C(C)C [FFHHFARGIVHVGKTIHRLVTG] | 16 (≈ 40.5 µg/mL) | 12 (≈ 30.3 µg/mL) | 24 (≈ 60.7 µg/mL) |  |  |  |  |  |  |  |  |  |  |  |  |  |  |  | 
CC[C@H](C)[C@H](N)C(=O)N[C@@H](CCCCN)C(=O)N[C@@H](Cc1cnc[nH]1)C(=O)N[C@@H](CCC(N)=O)C(=O)NCC(=O)N[C@@H](CC(C)C)C(=O)N1CCC[C@H]1C(=O)N[C@@H](CCC(N)=O)C(=O)N[C@@H](C)C(=O)O [IKHQGLPQA] |  |  |  | ≥ 2500 | ≥ 1250 | ≥ 625 | ≥ 2500 | ≥ 2500 | ≥ 2500 | ≥ 2500 | ≥ 2500 | ≥ 2500 | ≥ 2500 | ≥ 625 | ≥ 625 | ≥ 2500 |  |  | 
CC[C@H](C)[C@H](N)C(=O)N[C@@H](CCCCN)C(=O)N[C@@H](Cc1cnc[nH]1)C(=O)N[C@@H](CCC(N)=O)C(=O)NCC(=O)N[C@@H](CCCN=C(N)N)C(=O)N1CCC[C@H]1C(=O)N[C@@H](CCC(N)=O)C(=O)N[C@@H](CCC(=O)O)C(=O)O [IKHQGRPQE] |  |  |  | ≥ 2500 | ≥ 2500 | ≥ 2500 | ≥ 2500 | ≥ 2500 | ≥ 2500 | ≥ 2500 | ≥ 2500 | ≥ 2500 | ≥ 2500 | ≥ 2500 | ≥ 2500 | ≥ 2500 |  |  | 
NCCCC[C@H](NC(=O)[C@H](CCCN=C(N)N)NC(=O)[C@H](CCCCN)NC(=O)[C@H](CCCCN)NC(=O)[C@H](CCCN=C(N)N)NC(=O)[C@@H](N)CCCCN)C(=O)O [KRKKRK] |  |  |  |  |  |  |  |  |  |  |  |  |  |  |  |  | ≥ 64 | 16 (≈ 13.5 µg/mL) | 
CC[C@H](C)[C@H](NC(=O)[C@H](CC(C)C)NC(=O)[C@@H](NC(=O)[C@H](CC(C)C)NC(=O)[C@@H](NC(=O)[C@H](CCCCN)NC(=O)[C@@H](N)CCCN=C(N)N)[C@@H](C)CC)[C@@H](C)CC)C(=O)N[C@@H](CCCCN)C(=O)N[C@@H](CCCN=C(N)N)C(=O)N[C@@H](CCCCN)C(=O)O [RKILILIKRK] |  |  |  |  |  |  |  |  |  |  |  |  |  |  |  |  | 16 (≈ 20.5 µg/mL) | 4 (≈ 5.12 µg/mL) | 
CC(C)C[C@H](NC(=O)[C@H](CC(C)C)NC(=O)[C@H](CC(N)=O)NC(=O)[C@H](CC(N)=O)NC(=O)[C@H](CC(C)C)NC(=O)[C@@H](N)C(C)C)C(=O)N[C@@H](CCCN=C(N)N)C(=O)O [VLNNLLR] |  |  |  | ≥ 1250 | ≥ 1250 | ≥ 625 | ≥ 2500 | ≥ 2500 | ≥ 1250 | ≥ 2500 | ≥ 1250 | ≥ 312 | ≥ 1250 | ≥ 1250 | ≥ 1250 | ≥ 312 |  |  | 64 (≈ 53.8 µg/mL)
